Source: PMC6631481, “De Novo Design and In Vitro Testing of Antimicrobial Peptides against Gram-Negative Bacteria” (Pharmaceuticals, 2019)
No end group written: not given here.

Tested on: Escherichia coli ATCC 25922
Format: cell-based
Protocol: The MICs of the designed cationic peptides against Escherichia coli ATCC 25,922 strains were determined by the broth microdilution method, as described by Hancock et al.. All MIC evaluations were performed using Luria Bertani (LB) medium. Briefly, a range of each peptide concentrations (100 µg/mL, 50 µg/mL, 25 µg/mL, 12.5 µg/mL, 6.25 µg/mL, 3.125 µg/mL) was prepared by serial dilution in NaCl-depleted LB medium and added to an equal volume (250 µl) of exponentially grown bacterial culture, so that final bacterial suspension contained 5 × 10^5 CFU/mL. The samples were incubated in 2 mL polypropylene microtubes at 37 °C overnight at 300 rpm. The MIC was defined as the concentration at which no microbial growth was detected spectrophotometrically, via readings of optical density (OD) at 600 nm (Biotek ELX800 microplate reader). Growth medium containing only bacterial cells was used as a negative control. Each MIC test was carried out in two replicates and repeated three times.

Substance: IRPAKLRWFKKIK-NH2 [SP5]
- MIC At NaCl: >100 µg/mL
- MIC Without NaCl: 12.5 to 25 µg/mL

Substance: IRRRIRLIVRRQI-NH2 [SP12]
- MIC At NaCl: 12.5 to 25 µg/mL
- MIC Without NaCl: 1.56 to 3.125 µg/mL

Substance: IRRWRLHWFRRAI-NH2 [SP11]
- MIC At NaCl: 12.5 to 25 µg/mL
- MIC Without NaCl: 3.125 to 6.25 µg/mL

Substance: KFRKFGKQVWVRL-NH2 [SP8]
- MIC At NaCl: 12.5 to 25 µg/mL
- MIC Without NaCl: 3.125 to 6.25 µg/mL

Substance: KVWSRLRKIFSTR-NH2 [SP9]
- MIC At NaCl: 6.25 to 12.5 µg/mL
- MIC Without NaCl: 3.125 to 6.25 µg/mL

Substance: NAMRGAKRVWRHI-NH2 [SP7]
- MIC At NaCl: >100 µg/mL
- MIC Without NaCl: 50 to 100 µg/mL

Substance: RLFIKKLKFITRR-NH2 [SP6]
- MIC At NaCl: 25 to 50 µg/mL
- MIC Without NaCl: 3.125 to 6.25 µg/mL

Substance: RWIRWVWRKKLR-NH2 [SP15]
- MIC At NaCl: 3.125 to 6.25 µg/mL
- MIC Without NaCl: 0.78 to 1.56 µg/mL

Substance: RWIRWVWRKKLRI-NH2 [SP14]
- MIC At NaCl: 12.5 to 25 µg/mL
- MIC Without NaCl: 3.125 to 6.25 µg/mL
